According to PubChem BioAssay (NCI):
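Five concentrations, 48 hours, 96-well plates. TGI marks complete inhibition of growth.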

How the values were obtained:
Assay in all cases: growth of human tumour cells (NCI), 48 h
[1] = tested on: NCI-H522 lung
[2] = tested on: OVCAR-5 ovarian
[3] = tested on: HOP-92 NSCLC
[4] = tested on: UO-31 renal
[5] = tested on: LXFL 529 NSCLC
[6] = tested on: OVCAR-3 ovarian
[7] = tested on: NCI-H460 lung
[8] = tested on: SK-MEL-28 melanoma
[9] = tested on: HOP-62 NSCLC
[10] = tested on: CAKI-1 renal
[11] = tested on: DLD-1 colon
[12] = tested on: XF 498 CNS
[13] = tested on: HOP-18 NSCLC
[14] = tested on: DMS 273 small cell lung
[15] = tested on: SNB-78 CNS
[16] = tested on: RPMI-8226 leukemia
[17] = tested on: LOX IMVI melanoma
[18] = tested on: HCT-15 colon
[19] = tested on: UACC-257 melanoma
[20] = tested on: TK-10 renal
[21] = tested on: UACC-62 melanoma
[22] = tested on: MOLT-4 leukemia
[23] = tested on: MALME-3M melanoma
[24] = tested on: EKVX NSCLC
[25] = tested on: ACHN renal
[26] = tested on: SW-620 colon
[27] = tested on: SK-MEL-5 melanoma
[28] = tested on: HCC-2998 colon
[29] = tested on: M19-MEL melanoma
[30] = tested on: OVCAR-4 ovarian
[31] = tested on: SF-295 CNS
[32] = tested on: CCRF-CEM leukemia
[33] = tested on: SF-539 CNS
[34] = tested on: SK-MEL-2 melanoma
[35] = tested on: NCI-H23 lung
[36] = tested on: A498 renal
[37] = tested on: SF-268 CNS
[38] = tested on: NCI-H226 lung
[39] = tested on: DMS 114 small cell lung
[40] = tested on: M14 melanoma
[41] = tested on: A549 NSCLC
[42] = tested on: KM20L2 colon
[43] = tested on: K-562 leukemia
[44] = tested on: U251 CNS
[45] = tested on: SNB-19 CNS
[46] = tested on: HT29 colon
[47] = tested on: COLO 205 colon
[48] = tested on: IGROV1 ovarian
[49] = tested on: HL-60(TB) leukemia
[50] = tested on: SK-OV-3 ovarian
[51] = tested on: 786-0 renal
[52] = tested on: KM12 colon
[53] = tested on: OVCAR-8 ovarian
[54] = tested on: RXF 393 renal
[55] = tested on: SN12C renal
[56] = tested on: SR leukemia
[57] = tested on: HCT-116 colon
[58] = tested on: SNB-75 CNS

Measured: TGI

CC1=CC(C)(C)N=C2SC(c3ccc(Cl)cc3)=NN12
49.8 µM: [16]
80.5 µM: [13]
53.7 µM: [2]
32.5 µM: [49]
92.1 µM: [6]
55.4 µM: [38]
32.8 µM: [51]
75.6 µM: [23]
51 µM: [22]
51.8 µM: [12]
50.4 µM: [4]
81.5 µM: [35]
90.9 µM: [44]
83.6 µM: [36]
38.7 µM: [46]
33.9 µM: [27]
46.4 µM: [1]
61.5 µM: [3]
58.1 µM: [11]
not listed: [53] | [54] | [55] | [56] | [57] | [58]
> 100 µM: all other assays above

O=c1c2ccc3cccc4c(=O)cc(c5ccccc15)-c2c34
54 µM: [29]
not listed: [3] | [12] | [15] | [16] | [33]
> 100 µM: all other assays above
